Results published in patent US12624068B2, “Exon skipping by peptide nucleic acid derivatives” (OliPass Corporation, priority 2016, dated 2026).
{Fethoc} = N-terminal Fethoc capping group (publication's abbreviation); [C(1O2)] = modified PNA monomer acting as cytosine, C(pOq) type, 1O2; [A(5)] = modified PNA monomer acting as adenine, A(p) type, p=5; [G(6)] = modified PNA monomer acting as guanine, G(p) type, p=6; {NH2} = C-terminal non-substituted amino (amide) group

Assays:
human PD-1 mRNA = test: PD-1 nested qPCR in Jurkat cells; assay type: cell-based; settings: 24 hours; for decrease of PD-1 mRNA level (nested qPCR): activated Jurkat cells
Protocol: [Cell Culture & ASO Treatment] Jurkat cells grown in 60 mm culture dish were activated with an anti-CD3 antibody (Cat. Number 16-0037, eBioscience) at […] and an anti-CD28 antibody (Cat. No. 16-0289, eBioscience) at 0.5 μg/mL for 48 hours. Then the culture medium was replaced with fresh medium, and treated with “PD-ASO 3” at 0 (negative control), 10, 100 or 1,000 aM for 24 hours. (4 culture dishes per ASO concentration) [RNA Extraction and cDNA Synthesis by One Step RT-PCR] Total RNA was extracted using RNAeasy mini prep kit (Qiagen, USA) according to the manufacturer's protocol. […] NO: 157); and PD-exon 5_reverse: (5'→3') […] NO: 158)]. Cycle conditions: 50° C. for 30 minutes and 94° C. for 2 minutes, which was followed by 30 cycles of 30 seconds at 94° C., 30 seconds at 53° C., and 1 minutes at 72° C. [Nested qPCR by SYBR] […] NO: 159); and PD-exon 2_reverse: (5'→3') […] NO: 160)] according to the following cycle conditions: 20 seconds at 95° C., 30 seconds at 56° C., and 40 seconds at 72° C. for 40 cycles. The qPCR reaction was probed with SYBR (Bio-Rad, USA).

human PD-1 pre-mRNA = test: PD-1 nested PCR for exon skipping in Jurkat cells; assay type: cell-based; settings: 5 hours
Protocol: “PD-ASO 3” was evaluated for its ability to induce the skipping of the human PD-1 exon 2 in Jurkat cells as follows. [Cell Culture & ASO Treatment] Jurkat cells (Cat. Number TIB-152, ATCC) were maintained in RPMI-1640 supplemented with 10% FBS and 1% streptomycin/penicillin. Jurkat cells grown in 60 mm culture dish containing 5 mL culture medium were treated for 5 hours with “PD-ASO 5” at 0 (negative control), 10, 100 or 1,000 aM. [RNA Extraction and cDNA Synthesis by One Step RT-PCR] Total RNA was extracted using RNAeasy mini prep kit (Qiagen, USA) according to the manufacturer's protocol. […] NO: 153); and PD-exon 5_reverse: (5'→3') […] NO: 154)]. Cycle conditions: 50° C. for 30 minutes and 94° C. for 2 minutes, which was followed by 30 cycles of 30 seconds at 94° C., 30 seconds at 53° C., and 1 minutes at 72° C. [Nested PCR Amplification] 1 μL of cDNA diluted by 100× was further amplified in a 20 μL nested PCR (Invitrogen, USA) using the following cycle conditions: 20 seconds at 95° C., 30 seconds at 56° C., and 40 seconds at 72° C. for 40 cycles against a set of exon-specific primers [PD-exon 1n_forward: (5'→3') […] NO: 155); and PD-exon 5n_reverse: (5'→3') […] NO: 156)]. [Identification of Exon Skipping Products] The resulting nested PCR products were subjected to electrophoretic separation on a 2% agarose gel. The bands of target size were collected and analyzed by Sanger sequencing.

human IL-2 mRNA = test: IL-2 qPCR in Jurkat cells; assay type: cell-based; settings: 24 hours
Protocol: Down-regulation of the PD-1 activity has been known to upregulate the expression of interleukin 2 (IL-2). [Am. J. Clin. Oncol. Vol 39(1), 98-106 (2016)] […] [Cell Culture & ASO Treatment] Jurkat cells grown in 60 mm culture dish were activated with an anti-CD3 antibody (Cat. Number 16-0037, eBioscience) at 1 μg/mL and an anti-CD28 antibody (Cat. No. 16-0289, eBioscience) at 0.5 μg/mL for 48 hours. Then the culture medium was replaced with fresh medium, and treated with “PD-ASO 3” at 0 (negative control), 10, 100 or 1,000 aM for 24 hours. (4 culture dishes per ASO concentration) [RNA Extraction and cDNA Synthesis] Total RNA was extracted using RNeasy mini prep kit (Qiagen, USA) according to the manufacturer's protocol. […] [qPCR by SYBR] 1 μL of each cDNA solution was subjected to a 20 μL qPCR amplifications against a set of primers targeting the IL-2 mRNA [IL-2_forward: (5'→3') […] NO: 161); and IL-2_reverse: (5'→3') […] NO: 162)] according to the following cycle conditions: 20 seconds at 95° C., 30 seconds at 56° C., and 40 seconds at 72° C. for 40 cycles. The qPCR reaction was probed with SYBR (Bio-Rad, USA).

[1] = tested on: melanogenesis in B16F10 cells; test: Melanin content (melanogenesis) in B16F10 cells; assay type: cell-based, mouse; settings: 24 hours
Protocol: “TYR-ASO 4” was evaluated for its ability to inhibit the melanogenesis in B16F10 cells as described below.
B16F10 cells grown in 60 mm culture dish containing 5 mL culture medium were treated either with “TYR-ASO 4” at 0 (negative control) or 1 to 1,000 aM, or with 10 or 100 μg/mL arbutin as a positive control. (2 culture dishes per dose) 24 hours later, the cells were subjected to lysis with 200 μL 1N NaOH. Each lysate was collected in 1.5 mL e-tube, and kept overnight at room temperature. The melanin content in each lysate was determined by absorbance at 475 nm on an ELISA reader. The experiment was repeated four times using cells at different passage. The four sets of the melanin content data were pooled for statistical analysis by student's t-test against the melanin content without treatment (negative control).

human IDO1 pre-mRNA = test: IDO1 nested PCR for exon skipping in SKOV3 cells; assay type: cell-based; settings: 48 hours
Protocol: “IDO-ASO 1” was evaluated for its ability to induce exon skipping in SKOV3 cells (Cat. Number HTB-77, ATCC) by IDO1 nested PCR as follows. [Cell Culture & ASO Treatment] SKOV3 (human ovary adenocarcinoma) cells were subcultured in 60 mm culture dish containing 5 mL McCoy's 5A modified medium supplemented with 10% FBS, 1% streptomycin/penicillin, 1% L-glutamine, and 1% sodium pyruvate under 5% CO2 at 37° C., and treated with “IDO-ASO 1” for 48 hours at 0 zM (negative control), 10 zM, 100 zM or 1 aM. [RNA Extraction & cDNA Synthesis by One-Step RT-PCR] Total RNA was extracted from the cells using “Universal RNA Extraction Kit” (Cat. Number 9767, Takara) according to the manufacturer's instructions. […] NO: 114); and IDO-exon 10_reverse: (5'→3') […] [Nested PCR Amplification] 1 μL of cDNA was further amplified in a 20 μL nested PCR reaction (Cat. No. K2612, Bioneer) against a set of exon-specific primers [IDO-exon 4_forward: (5'→3') […] NO: 116); and IDO-exon 9_reverse: (5'→3') […] [Identification of Exon Skipping Product] The PCR products were subjected to electrophoretic separation on a 2% agarose gel. The bands of target size were collected and analyzed by Sanger sequencing. […] [ASO Treatment] SKOV3 cells grown in 60 mm culture dish were treated with “IDO-ASO 5” at 0 (negative control), 1, 3, 10, 30 or 100 aM for 48 hours. [cDNA Synthesis by One-step PCR] […] NO: 119); and IDO-exon 8_reverse: (5'→3') […] [Nested PCR Amplification] 1 μL of cDNA was further amplified in a 20 μL nested PCR (Cat. No. K2612, Bioneer) reaction using a set of exon-specific primers [IDO-exon 1n_forward: (5'→3') […] NO: 121); and IDO-exon 8n_reverse: (5'→3') […] “IDO-ASO 6” was evaluated for its ability to induce exon skipping in SKOV3 cells by IDO1 nested PCR as described in “IDO1 Example 3” unless noted otherwise.

[2] = tested on: secretion of kynurenine in SKOV3 cells; test: Kynurenine secretion assay in SKOV3 cells; assay type: cell-based, human; settings: 24 hours, with 10 ng/mL γ-interferon
Protocol: The functional activity of “IDO-ASO 1” was evaluated for its ability to inhibit the secretion of kynurenine in SKOV3 cells as follows.
[Kynurenine Secretion Assay] […] (3 dishes per concentration) Cells were treated with the ASO along with 10 ng/mL γ-interferon to increase the kynurenine secretion. 24 hours later, 200 μL of the culture medium was sampled from each culture dish and mixed with 100 μL 30% trichloroacetic acid. The mixture was vortexed and subjected to centrifugation at 8,000 g for 5 min. 75 μL of the resulting supernatant was mixed with 75 μL Ehrlich reagent (0.8% p-dimethylamino-benzaldehyde in acetic acid), and the mixture was subjected to a quantification for kynurenine at 490 nm on an ELISA reader. [PLOS One 5(8): e63301 (2013)]

[3] = activated Jurkat cells, 1,000 aM

Molecule: Fethoc-C(1O2)TG(6)-GG(6)G-AG(6)T-CTG-A(5)G-NH2 (CTGGGGAGTCTGAG; splice-switching; all peptide nucleic acid (PNA), [C(1O2)] at 1, [G(6)] at 3, 5, 8, [A(5)] at 13, 5' {Fethoc}, 3' {NH2}; peptide nucleic acid backbone) [PD-ASO 1]
- decrease of PD-1 mRNA level (nested qPCR) (human PD-1 mRNA; 100 and 1,000 aM): ~60%

Molecule: Fethoc-CG(6)C-A(5)CC-TG(6)T-CA(5)C-C(1O2)C-NH2 (CGCACCTGTCACCC; splice-switching; all peptide nucleic acid (PNA), [G(6)] at 2, 8, [A(5)] at 4, 11, [C(1O2)] at 13, 5' {Fethoc}, 3' {NH2}; peptide nucleic acid backbone) [PD-ASO 3]
- decrease of PD-1 mRNA level (nested qPCR) (human PD-1 mRNA; 10 and 100 aM): > 80%
- PD-1 mRNA level relative to the negative control level (nested qPCR) (human PD-1 mRNA; [3]): ~55%
- PD-1 exon skipping by nested PCR (human PD-1 pre-mRNA; Jurkat cells, 10 and 100 aM): yielded a PCR product band corresponding to the skipping of exon 2
- PD-1 exon skipping by nested PCR (human PD-1 pre-mRNA; Jurkat cells, 1,000 aM): the PCR product of exon 2 skipping disappeared
- increase of IL-2 mRNA level (qPCR) (human IL-2 mRNA; activated Jurkat cells, 10 aM): ~140%
- increase of IL-2 mRNA level (qPCR) (human IL-2 mRNA; activated Jurkat cells, 100 aM): 120%
- increase of IL-2 mRNA level (qPCR) (human IL-2 mRNA; [3]): 40%

Molecule: OC[C@H]1O[C@@H](Oc2ccc(O)cc2)[C@H](O)[C@@H](O)[C@@H]1O [arbutin]
- decrease of melanin content ([1]; 10 μg/mL): ~15%
- decrease of melanin content ([1]; 100 μg/mL): 25%

Molecule: Fethoc-GG(6)A-A(5)TT-A(5)CC(1O2)-TAA(5)-A-NH2 (GGAATTACCTAAA; splice-switching; all peptide nucleic acid (PNA), [G(6)] at 2, [A(5)] at 4, 7, 12, [C(1O2)] at 9, 5' {Fethoc}, 3' {NH2}; peptide nucleic acid backbone) [IDO-ASO 1]
- intensity of the full-length IDO-1 mRNA by nested PCR (human IDO1 pre-mRNA; 1 aM): increased
- intensity of the full-length IDO-1 mRNA by nested PCR (human IDO1 pre-mRNA; 10 or 100 zM): decreased
- IDO1 exon skipping band by nested PCR (human IDO1 pre-mRNA; 10 zM or 1 aM): not detected
- skipping of IDO1 exons 6-7 by nested PCR (human IDO1 pre-mRNA; 100 zM): detected
- decrease of kynurenine secretion ([2]; 1 fM): ~40%
- secretion of kynurenine ([2]; 10 zM to 1 fM except 1 aM): significantly (student's t-test) decreased
